Measured values as given in publication PMC5947877 (Phytomedicine : international journal of phytotherapy and …, 2017).
Entries after “also recorded” stand apart in the source; their conditions may differ.

Experiments:
recombinant human MAO-A [1] = target: T1, recombinant human MAO-A (Homo sapiens, UniProt P21397); assay: Enzyme kinetics and mechanism of inhibition with MAO-A; format: biochemical; details: for Type of Inhibition, Monoamine oxidase-A: Lineweaver-Burk analysis, reversibility from dialysis
T1 sequence (P21397 1-527): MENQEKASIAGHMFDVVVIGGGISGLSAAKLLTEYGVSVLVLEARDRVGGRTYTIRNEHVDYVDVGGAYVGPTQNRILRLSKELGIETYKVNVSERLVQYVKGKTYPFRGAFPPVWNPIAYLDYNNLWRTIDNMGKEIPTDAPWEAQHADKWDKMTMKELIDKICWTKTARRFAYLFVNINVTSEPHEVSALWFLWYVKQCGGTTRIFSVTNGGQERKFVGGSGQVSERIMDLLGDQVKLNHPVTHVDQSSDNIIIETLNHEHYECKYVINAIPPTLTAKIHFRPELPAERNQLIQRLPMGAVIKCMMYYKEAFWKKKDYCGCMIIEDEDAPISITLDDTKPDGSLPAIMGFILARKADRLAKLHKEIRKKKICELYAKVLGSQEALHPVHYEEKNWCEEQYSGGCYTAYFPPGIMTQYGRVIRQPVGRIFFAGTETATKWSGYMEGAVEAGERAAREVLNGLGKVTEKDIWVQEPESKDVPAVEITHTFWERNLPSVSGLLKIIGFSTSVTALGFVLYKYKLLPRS

recombinant human MAO-B = target: T2, recombinant human MAO-B (Homo sapiens, UniProt P27338); assay: Fluorometric kynuramine deamination assay, MAO-B inhibition; format: biochemical
T2 sequence (P27338 1-520): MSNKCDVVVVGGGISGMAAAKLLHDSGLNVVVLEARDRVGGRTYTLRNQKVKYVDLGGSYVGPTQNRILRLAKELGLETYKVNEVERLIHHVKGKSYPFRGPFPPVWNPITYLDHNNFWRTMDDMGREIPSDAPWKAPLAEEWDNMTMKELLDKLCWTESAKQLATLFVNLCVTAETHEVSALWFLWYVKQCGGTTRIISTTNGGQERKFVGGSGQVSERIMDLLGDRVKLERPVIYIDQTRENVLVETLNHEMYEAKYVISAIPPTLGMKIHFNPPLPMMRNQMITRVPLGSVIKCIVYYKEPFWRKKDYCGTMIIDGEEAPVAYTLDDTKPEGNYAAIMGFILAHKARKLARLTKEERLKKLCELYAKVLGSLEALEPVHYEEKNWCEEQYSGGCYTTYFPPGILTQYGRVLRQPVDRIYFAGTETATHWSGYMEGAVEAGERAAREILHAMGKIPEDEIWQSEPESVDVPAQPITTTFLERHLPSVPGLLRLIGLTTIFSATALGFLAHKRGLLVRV

recombinant human MAO-A [2] = target: T1, recombinant human MAO-A; details: dialysis 14-16 h at 4 °C
recombinant human MAO-A [3] = target: T1, recombinant human MAO-A; assay: Fluorometric kynuramine deamination assay, MAO-A inhibition; format: biochemical; details: ratio of IC50 MAO-B / MAO-A

Type of Inhibition, Monoamine oxidase-A (recombinant human MAO-A [1]; listed as myricetin) | Compound | Ki (recombinant human MAO-A [1]) | Type of Inhibition, Monoamine oxidase-A (recombinant human MAO-A [1]) | IC50 (recombinant human MAO-B) | nature of binding to MAO-A (recovery of activity after dialysis) (recombinant human MAO-A [2]) | Type of Inhibition, Monoamine oxidase-A (recombinant human MAO-A [1]; listed as quercetin) | preferential MAO-A inhibition over MAO-B (fold) (recombinant human MAO-A [3])
mixed-type | O=c1c(O)c(-c2cc(O)c(O)c(O)c2)oc2cc(O)cc(O)c12 [Myricetin, myricetin] | 2240 ± 250 nM | Mixed/Reversible | 59.3 ± 1.78 µM | reversible binding; also recorded: reversible inhibition |  | 
 | O=c1c(O)c(-c2ccc(O)c(O)c2)oc2cc(O)cc(O)c12 [Quercetin, quercetin] | 290 ± 30 nM | Competitive/Reversible | 28.4 ± 5.41 µM | reversible binding; also recorded: reversible inhibition | competitive | 18 fold
